Where a name gives a salt, the structure may show the parent alone. Read-outs that look alike come from different tables or passages of the source.
Tests used:
[1] = target: Recombinant human PKC-delta (His-tagged 345-676) (Homo sapiens (Human), UniProt Q05655); experiment: PKC-delta inhibition assay (HTRF KinEASE kit), PKC-theta/PKC-delta selectivity; format: biochemical; conditions: ratio; for PKC-theta/PKC-delta selectivity: PKC-theta over PKC-delta, HTRF assays; for PKC-theta/PKC-delta selectivity (binned): binned A to G
Protocol: (§1) PKC-theta and PKC-delta biochemical activities were measured using the PKC-theta HTRF KinEASEkit kit, according to manufacturer's instructions (Cisbio, catalogue number 61ST1PEJ). Briefly, the kinase buffer component of the kit was supplemented with 10 mM MgCl2, 1 mM DTT and 0.1% Tween 20. For the PKC-theta assay, STK substrate and ATP were added to provide a final assay concentration of 525 nM and 6.5 μM, respectively. For the PKC-delta assay, STK substrate and ATP were added to provide a final assay concentration of 243 nM and 5.7 μM, respectively. The streptavidin_XL665 and STK antibody-cryptate detection reagents were mixed according to the manufacturer's instructions. Test compounds were diluted in DMSO in a series of 10 semi-log step doses; 10 nL of each compound dose were dispensed in 384 well plates. Recombinant human PKC-theta (His-tagged 362-706) or PKC-delta (His-tagged 345-676) was diluted into kinase buffer to provide a final assay concentration of 10 ng/ml and added to the test compound for 30 minutes on ice. The reaction was started by addition of the substrate and ATP and incubated at 25° C. for 30 minutes or 20 minutes for the PKC-theta and PKC-delta assays, respectively. The detection reagents were added, and the plate was incubated in the dark for 2 hours. Fluorescence was measured on an Envision 2103 plate reader with optical setup for […] in the HTRF mode. The ratio of acceptor and donor emission signals was calculated for each well. Percent inhibition values were calculated from the HTRF ratios at different doses and fitted to a 4-parameter logistic curve to determine IC50 values (see Table 1).

[2] = target: Recombinant human PKC-theta (His-tagged 362-706) (Homo sapiens (Human), UniProt Q04759); experiment: PKC-theta inhibition assay (HTRF KinEASE kit); format: biochemical; conditions: ATP 6.5 μM
Protocol: as §1

[3] = system: IL-2 secretion by human effector memory T cells (TEM); experiment: Effector memory T cells IL-2 release assay; format: cell-based; conditions: T-cell, 24 h
Protocol: Test compound-mediated inhibition of NFκB signalling in T cells was assessed by quantification of the IL-2 secretion by human effector memory T cells (TEM) upon treatment and stimulation. Human TEM cells were isolated from buffy coats of healthy donors obtained from the French blood bank. First, peripheral blood mononuclear cells (PBMC) were purified from buffy coats diluted 1:1 with DPBS (Gibco, cat #14190-094) by Pancoll (PAN BIOTECH, cat #P04-60500) density gradient centrifugation at 400×g for 20 minutes. TEM cells were further enriched by negative immuno-magnetic cell sorting using a human CD4+ Effector Memory T Cell Isolation Kit (Miltenyi, cat #130-094-125) according to the manufacturer's instructions. Aliquots of 3×10E6 purified TEM cells were kept frozen in Cryo-SFM medium (PromoCell, cat #C-29912) in gas phase nitrogen until used. Cell purity was verified by flow cytometry analysis of 200 000 PFA-fixed cells previously labelled with monoclonal antibodies anti-CD4-PerCP-Cy5.5 (BD Pharmigen, cat #332772), anti-CD8-V500 (BD Biosciences, cat #561617), anti-CD14-Pacific Blue (Biolegend, cat #325616), anti-CD45 RA-FITC (Biolegend, cat #304106) and anti-CCR7-APC (in CD4+ Effector Memory T Cell Isolation Kit, Miltenyi, cat #130-094-125).
TEM cells were resuspended in complete RPMI medium composed of: RPMI 1640 (Gibco, cat #31870-025), 10% heat inactivated fetal bovine serum (Sigma, cat #F7524), 2 mM GlutaMAX (Gibco, cat #35050-038), 1 mM sodium pyruvate 100× (Gibco, cat #11360-039), 1% MEM non-essential amino acids solution (Gibco, cat #11140-035) and 100 U/mL penicillin, 100 µg/mL streptomycin (Sigma-Aldrich, cat #11074440001). 5,000 cells per well were plated onto flat clear bottom 384 well plates (Corning, cat #3770). 5,000 Dynabeads Human T-Activator CD3/CD28 (Gibco, cat #11132D) were added to each well for cell stimulation. Finally, 10 doses of test compound, originally prepared in DMSO by serial semi-log step dilution, were also added to cells in triplicate wells. Final DMSO concentration in wells was 0.1% in a total volume of 100 µL complete medium. Plates were incubated for 24 h at 37° C. in 5% CO2 atmosphere. After incubation, cell suspensions were centrifuged at 400×g and culture supernatants were recovered and stored at −80° C. Cell viability was assessed by flow cytometry after staining the cells with Fixable Viability Dye eFluor 780 (Invitrogen, cat #65-0865-14). IL-2 levels were determined in cell supernatants using an HTRF human IL-2 detection kit (Cisbio, cat #62HIL02PEH). IL-2 data at the different compound doses were fitted to a 4-parameter logistic curve to determine IC50 values, corresponding to the compound concentration leading to 50% reduction of the maximal IL-2 levels observed in each experiment. Viability data were analysed similarly to exclude cytotoxicity as a cause of IL-2 decrease (see Table 1).

[4] = binned A to H, read-out: PKC-theta HTRF pIC50 (binned) (converted)
[5] = read-out: PKC-theta HTRF pIC50 (converted)
[6] = human CD4+ TEM cells, CD3/CD28 bead stimulation, binned A to G, read-out: PKC-theta IL2 pIC50 (binned) (converted)
[7] = human CD4+ TEM cells, CD3/CD28 bead stimulation, read-out: PKC-theta IL2 pIC50 (converted)

Chain of Recombinant human PKC-theta (His-tagged 362-706) (Q04759 362-706): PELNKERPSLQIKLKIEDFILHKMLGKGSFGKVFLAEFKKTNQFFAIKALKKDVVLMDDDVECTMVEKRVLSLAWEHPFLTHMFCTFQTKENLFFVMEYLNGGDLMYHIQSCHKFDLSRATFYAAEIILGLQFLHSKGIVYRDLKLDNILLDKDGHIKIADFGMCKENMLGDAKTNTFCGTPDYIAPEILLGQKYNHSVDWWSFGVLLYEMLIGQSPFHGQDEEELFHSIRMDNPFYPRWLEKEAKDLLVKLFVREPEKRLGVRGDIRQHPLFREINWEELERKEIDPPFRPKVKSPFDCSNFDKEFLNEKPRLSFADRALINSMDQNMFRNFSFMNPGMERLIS
Chain of Recombinant human PKC-delta (His-tagged 345-676) (Q05655 345-676): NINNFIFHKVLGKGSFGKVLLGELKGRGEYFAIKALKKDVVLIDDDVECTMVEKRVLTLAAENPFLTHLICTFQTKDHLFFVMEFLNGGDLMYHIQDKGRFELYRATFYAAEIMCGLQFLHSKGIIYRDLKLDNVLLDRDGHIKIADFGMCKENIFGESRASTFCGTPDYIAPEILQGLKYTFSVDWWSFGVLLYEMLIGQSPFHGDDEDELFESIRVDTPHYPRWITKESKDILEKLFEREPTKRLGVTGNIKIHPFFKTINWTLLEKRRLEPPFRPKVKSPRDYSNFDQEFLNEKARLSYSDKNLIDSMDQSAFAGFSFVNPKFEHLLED

Structure (SMILES)	PKC-theta/PKC-delta selectivity [1]	PKC-theta/PKC-delta selectivity (binned) [1]	IC50 [2, 4] [nM]	IC50 [2, 5] [nM]	IC50 [3, 6] [nM]	IC50 [3, 7] [nM]	PKC-theta HTRF pIC50 [2]	IC50 ([3]; Homo sapiens, read-out: PKC-theta IL2 pIC50 (binned) (converted)) [nM]	IC50 ([3]; Homo sapiens, read-out: PKC-theta IL2 pIC50 (converted)) [nM]
CC[C@]1(O)C(=O)Nc2nccc(-c3nn([C@H]4CCNC[C@H]4F)c4ccccc34)c21 (single isomer, unassigned) [Example 84]	14	D (D means a ratio of between 10 and 20)	31.6 to 100	31.6	> 1000	1260			
C[C@@]1(O)C(=O)Nc2nccc(-c3nn(C4(CC#N)CCC4)c4ncccc34)c21 (single isomer, unassigned) [Example 60]	8	E (E means a ratio of between 5 and 10)	3.16 to 10	3.98	100 to 316	100			
C[C@@]1(O)C(=O)Nc2nccc(-c3nn(C4(CC#N)CNC4)c4ccccc34)c21 (single isomer, unassigned) [Example 49]	3	F (F means a ratio of between 1 and 5)	3.16 to 10	6.31	100 to 316	316			
CO[C@]1(C)C(=O)Nc2nccc(-c3nn(CC4(F)CCNCC4)c4cc(F)ccc34)c21 (single isomer, unassigned) [Example 76]	22	C (C means a ratio of between 20 and 30)	1 to 3.16	3.16	31.6 to 100	100			
COCc1cc(-c2ccnc3[nH]c(=O)[nH]c23)cn1C1CCNCC1 [Example 4]	2	F (F means a ratio of between 1 and 5)	> 1000		> 1000	3980	6.0		
CO[C@@]1(C)C(=O)Nc2nccc(-c3nn([C@@H]4CCNC[C@@H]4F)c4ccccc34)c21 (single isomer, unassigned) [Example 92]	15	D (D means a ratio of between 10 and 20)	10 to 31.6	12.6	100 to 316	158			
CC[C@@]1(O)C(=O)Nc2nccc(-c3nn([C@H]4CCNC[C@H]4F)c4ccccc34)c21 (single isomer, unassigned) [Example 82]	12	D (D means a ratio of between 10 and 20)	≤ 1	0.794	31.6 to 100	50.1			
CC1(C)C(=O)Nc2nccc(-c3nn([C@H]4CCNC[C@@H]4F)c4ccccc34)c21 (racemic) [Example 36]	14	D (D means a ratio of between 10 and 20)	3.16 to 10		100 to 316	126	8.3		
CO[C@]1(C)C(=O)Nc2nccc(-c3nn([C@H]4CCNC[C@H]4F)c4ccccc34)c21 (single isomer, unassigned) [Example 91]	19	D (D means a ratio of between 10 and 20)	3.16 to 10	7.94	100 to 316	126			
C[C@@]1(O)C(=O)Nc2nccc(-c3nn(C4(CC#N)CCC4)c4c(F)cccc34)c21 (single isomer, unassigned) [Example 58]	18	D (D means a ratio of between 10 and 20)	≤ 1	0.501	10 to 31.6	10			
CC1(C)C(=O)Nc2nccc(-c3nn(CC4(F)CCNC4)c4ccccc34)c21 (stereo not drawn) [Example 96]	17	D (D means a ratio of between 10 and 20)	1 to 3.16		10 to 31.6	25.1	8.7		
CC1(O)C(=O)Nc2nccc(-c3ccn(C4CCNCC4)c3)c21 (stereo not drawn) [Example 11]	4	F (F means a ratio of between 1 and 5)	31.6 to 100		> 1000	1580	7.2		
CO[C@]1(C)C(=O)Nc2nccc(-c3nn(C4(CC#N)CCC4)c4ccccc34)c21 (single isomer, unassigned) [Example 81]	20	C (C means a ratio of between 20 and 30)	31.6 to 100	31.6	316 to 1000	794			
CCC1(C)C(=O)Nc2nccc(-c3nn([C@@H]4CCNC[C@@H]4F)c4ccccc34)c21 (stereo partly drawn) [Example 52]	8	E (E means a ratio of between 5 and 10)	3.16 to 10		31.6 to 100	39.8	8.4		
COC1(C)C(=O)Nc2nccc(-c3nn(C4(CC#N)CCC4)c4ccccc34)c21 (stereo not drawn) [Example 57]	14	D (D means a ratio of between 10 and 20)	1 to 3.16		31.6 to 100	50.1	8.9		
COC1(C)C(=O)Nc2nccc(-c3nn([C@@H]4CCNC[C@@H]4F)c4ccccc34)c21 (stereo partly drawn) [Example 61]	16	D (D means a ratio of between 10 and 20)	1 to 3.16		31.6 to 100	50.1	8.7		
C[C@]1(O)C(=O)Nc2nccc(-c3nn(C4CCNCC4)c4ccccc34)c21 (single isomer, unassigned) [Example 28]	15	D (D means a ratio of between 10 and 20)	1 to 3.16	2	10 to 31.6	31.6			
O=C1Nc2nccc(-c3nn(C4(CO)CCNC4)c4cc(F)ccc34)c2C12CCCC2 (stereo not drawn) [Example 55, 4-[6-fluoro-1-[3-(hydroxymethyl)pyrrolidin-3-yl]indazol-3-yl]spiro[1H-pyrrolo[2,3-b]pyridine-3,1′-cyclopentane]-2-one dihydrochloride]	4	F (F means a ratio of between 1 and 5)	3.16 to 10				8.2	100 to 316	158

Source: patent US20240239794A1, “PKC-Theta Modulators” (Exscientia AI Limited, priority 2021, published 2024)
